Results published in ChEMBL document CHEMBL3991601, “The target landscape of clinical kinase drugs” (Science, 2017).
Active and inactive are the calls of the source.

Key:
Activin receptor type-2B = Activin receptor type-2B (Homo sapiens, UniProt Q13705)
[1] = target: Inosine-5'-monophosphate dehydrogenase 2 (Homo sapiens, UniProt P12268)
[2] = target: T1, Interleukin-1 receptor-associated kinase 3 (Homo sapiens, UniProt Q9Y616)
T1 sequence (Q9Y616 whole entry): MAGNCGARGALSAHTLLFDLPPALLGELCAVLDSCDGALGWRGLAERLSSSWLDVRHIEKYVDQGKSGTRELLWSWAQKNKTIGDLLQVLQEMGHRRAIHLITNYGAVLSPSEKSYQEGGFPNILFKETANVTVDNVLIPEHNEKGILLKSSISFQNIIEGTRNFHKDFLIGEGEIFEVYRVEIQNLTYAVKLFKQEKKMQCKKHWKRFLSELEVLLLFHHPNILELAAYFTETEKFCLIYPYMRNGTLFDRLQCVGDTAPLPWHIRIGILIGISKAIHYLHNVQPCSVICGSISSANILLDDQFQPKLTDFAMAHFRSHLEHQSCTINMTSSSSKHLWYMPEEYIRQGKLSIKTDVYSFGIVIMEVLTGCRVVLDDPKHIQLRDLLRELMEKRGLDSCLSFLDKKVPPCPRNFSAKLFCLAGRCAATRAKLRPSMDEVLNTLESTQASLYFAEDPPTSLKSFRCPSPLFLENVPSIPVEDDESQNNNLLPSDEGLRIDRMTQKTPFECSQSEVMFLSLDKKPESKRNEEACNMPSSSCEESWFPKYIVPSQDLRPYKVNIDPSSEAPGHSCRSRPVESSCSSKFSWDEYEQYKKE

[3] = target: Ribosomal protein S6 kinase beta-1 (Homo sapiens, UniProt P23443)
[4] = target: 26S proteasome regulatory subunit 6B (Homo sapiens, UniProt P43686)
[5] = target: Tyrosine-protein kinase SYK (Homo sapiens, UniProt P43405)
[6] = target: T2, Receptor-type tyrosine-protein kinase FLT3 (Homo sapiens, UniProt P36888)
T2 sequence (P36888 whole entry): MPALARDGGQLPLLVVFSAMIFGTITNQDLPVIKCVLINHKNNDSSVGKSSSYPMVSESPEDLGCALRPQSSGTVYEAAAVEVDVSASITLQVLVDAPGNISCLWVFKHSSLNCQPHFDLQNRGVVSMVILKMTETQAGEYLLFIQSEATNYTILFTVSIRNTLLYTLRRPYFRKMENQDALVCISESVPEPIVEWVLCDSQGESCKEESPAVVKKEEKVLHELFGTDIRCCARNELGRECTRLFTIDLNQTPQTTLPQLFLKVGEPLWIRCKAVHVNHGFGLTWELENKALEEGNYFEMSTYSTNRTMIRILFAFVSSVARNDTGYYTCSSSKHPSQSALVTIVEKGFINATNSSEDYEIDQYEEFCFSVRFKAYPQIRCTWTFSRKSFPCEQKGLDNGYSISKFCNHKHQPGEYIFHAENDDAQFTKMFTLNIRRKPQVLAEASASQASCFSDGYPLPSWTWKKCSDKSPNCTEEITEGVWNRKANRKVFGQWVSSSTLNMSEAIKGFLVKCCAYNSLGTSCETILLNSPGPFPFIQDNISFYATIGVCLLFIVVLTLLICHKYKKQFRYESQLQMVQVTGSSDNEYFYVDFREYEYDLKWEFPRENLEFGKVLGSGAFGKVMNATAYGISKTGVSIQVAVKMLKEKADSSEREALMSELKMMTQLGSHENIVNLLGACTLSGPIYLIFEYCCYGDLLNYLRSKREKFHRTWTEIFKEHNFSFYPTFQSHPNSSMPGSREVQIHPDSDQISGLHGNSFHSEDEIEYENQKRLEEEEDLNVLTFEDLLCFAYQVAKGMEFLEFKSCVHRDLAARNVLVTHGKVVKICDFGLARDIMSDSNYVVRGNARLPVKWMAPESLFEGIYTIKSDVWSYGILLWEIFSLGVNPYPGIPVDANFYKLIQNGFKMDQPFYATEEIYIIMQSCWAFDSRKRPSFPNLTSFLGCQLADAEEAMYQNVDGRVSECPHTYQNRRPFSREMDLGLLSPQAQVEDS

Ephrin type-A receptor 5 = Ephrin type-A receptor 5 (Homo sapiens, UniProt P54756)
[7] = target: cAMP-dependent protein kinase type II-alpha regulatory subunit (Homo sapiens, UniProt P13861)
[8] = target: Mitogen-activated protein kinase 9 (Homo sapiens, UniProt P45984)
[9] = target: T3, Serine/threonine-protein kinase TAO1 (Homo sapiens, UniProt Q7L7X3)
T3 sequence (Q7L7X3 whole entry): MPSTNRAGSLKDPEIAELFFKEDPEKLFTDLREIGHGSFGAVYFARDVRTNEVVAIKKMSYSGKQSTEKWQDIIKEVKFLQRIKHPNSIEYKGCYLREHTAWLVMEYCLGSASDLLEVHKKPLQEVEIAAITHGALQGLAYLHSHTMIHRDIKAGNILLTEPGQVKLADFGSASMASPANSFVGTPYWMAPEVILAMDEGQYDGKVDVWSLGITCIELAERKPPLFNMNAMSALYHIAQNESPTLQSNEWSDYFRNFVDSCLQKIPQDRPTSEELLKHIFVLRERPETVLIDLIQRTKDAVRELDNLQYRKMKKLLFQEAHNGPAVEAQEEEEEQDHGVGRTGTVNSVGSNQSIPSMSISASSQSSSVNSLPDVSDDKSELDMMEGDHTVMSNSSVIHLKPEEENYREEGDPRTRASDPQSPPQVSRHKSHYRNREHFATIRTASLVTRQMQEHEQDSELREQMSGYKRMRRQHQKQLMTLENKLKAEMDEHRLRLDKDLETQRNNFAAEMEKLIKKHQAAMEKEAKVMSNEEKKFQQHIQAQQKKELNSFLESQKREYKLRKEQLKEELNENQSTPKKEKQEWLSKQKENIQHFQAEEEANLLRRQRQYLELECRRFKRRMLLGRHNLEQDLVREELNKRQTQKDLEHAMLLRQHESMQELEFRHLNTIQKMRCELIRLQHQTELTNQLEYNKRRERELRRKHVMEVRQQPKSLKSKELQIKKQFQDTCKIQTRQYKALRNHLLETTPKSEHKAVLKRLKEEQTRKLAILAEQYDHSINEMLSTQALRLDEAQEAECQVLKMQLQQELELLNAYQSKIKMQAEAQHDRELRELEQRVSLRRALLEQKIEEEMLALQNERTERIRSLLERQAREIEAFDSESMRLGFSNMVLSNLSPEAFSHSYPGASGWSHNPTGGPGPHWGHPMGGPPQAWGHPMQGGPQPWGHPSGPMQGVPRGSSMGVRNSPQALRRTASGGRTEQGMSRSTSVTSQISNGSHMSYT
Also: in the data inactive means no Kd found up to 30 µM.

26S proteasome regulatory subunit 6B, sequence (P43686 whole entry): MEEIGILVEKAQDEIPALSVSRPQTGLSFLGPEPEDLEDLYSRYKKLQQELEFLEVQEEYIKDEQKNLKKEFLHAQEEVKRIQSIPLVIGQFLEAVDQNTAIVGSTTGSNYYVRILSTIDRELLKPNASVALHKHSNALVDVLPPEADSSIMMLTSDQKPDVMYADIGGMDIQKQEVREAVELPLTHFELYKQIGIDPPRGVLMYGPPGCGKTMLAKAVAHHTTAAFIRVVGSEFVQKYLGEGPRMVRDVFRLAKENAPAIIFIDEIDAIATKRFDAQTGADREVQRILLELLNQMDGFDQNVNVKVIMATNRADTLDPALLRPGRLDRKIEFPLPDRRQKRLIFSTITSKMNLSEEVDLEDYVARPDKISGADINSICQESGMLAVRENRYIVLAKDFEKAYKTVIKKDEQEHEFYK
Ribosomal protein S6 kinase beta-1, sequence (P23443 whole entry): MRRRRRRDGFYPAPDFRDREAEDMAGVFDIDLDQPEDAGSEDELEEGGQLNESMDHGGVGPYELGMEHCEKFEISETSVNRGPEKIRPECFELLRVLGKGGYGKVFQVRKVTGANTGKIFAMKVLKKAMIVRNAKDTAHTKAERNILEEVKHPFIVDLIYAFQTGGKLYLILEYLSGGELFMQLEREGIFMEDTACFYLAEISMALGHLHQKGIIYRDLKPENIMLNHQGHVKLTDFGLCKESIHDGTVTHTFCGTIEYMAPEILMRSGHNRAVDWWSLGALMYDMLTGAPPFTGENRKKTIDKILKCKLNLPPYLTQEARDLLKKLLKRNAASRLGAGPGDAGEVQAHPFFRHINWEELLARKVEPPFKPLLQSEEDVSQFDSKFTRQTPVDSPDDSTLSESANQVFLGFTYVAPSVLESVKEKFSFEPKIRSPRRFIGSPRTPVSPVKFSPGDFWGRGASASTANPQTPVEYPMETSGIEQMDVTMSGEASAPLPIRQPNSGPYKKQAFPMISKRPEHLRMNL
Mitogen-activated protein kinase 9, sequence (P45984 whole entry): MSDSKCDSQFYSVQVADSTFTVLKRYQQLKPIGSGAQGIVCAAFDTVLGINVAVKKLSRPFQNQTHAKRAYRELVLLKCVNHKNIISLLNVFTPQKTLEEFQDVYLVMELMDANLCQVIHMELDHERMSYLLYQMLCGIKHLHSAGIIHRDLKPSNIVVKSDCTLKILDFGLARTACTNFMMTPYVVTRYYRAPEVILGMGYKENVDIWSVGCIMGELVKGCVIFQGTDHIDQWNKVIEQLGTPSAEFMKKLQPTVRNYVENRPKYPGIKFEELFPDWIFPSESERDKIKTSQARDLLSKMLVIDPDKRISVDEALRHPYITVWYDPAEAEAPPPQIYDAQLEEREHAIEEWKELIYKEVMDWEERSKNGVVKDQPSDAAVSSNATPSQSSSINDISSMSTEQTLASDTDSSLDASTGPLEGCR
Activin receptor type-2B, sequence (Q13705 whole entry): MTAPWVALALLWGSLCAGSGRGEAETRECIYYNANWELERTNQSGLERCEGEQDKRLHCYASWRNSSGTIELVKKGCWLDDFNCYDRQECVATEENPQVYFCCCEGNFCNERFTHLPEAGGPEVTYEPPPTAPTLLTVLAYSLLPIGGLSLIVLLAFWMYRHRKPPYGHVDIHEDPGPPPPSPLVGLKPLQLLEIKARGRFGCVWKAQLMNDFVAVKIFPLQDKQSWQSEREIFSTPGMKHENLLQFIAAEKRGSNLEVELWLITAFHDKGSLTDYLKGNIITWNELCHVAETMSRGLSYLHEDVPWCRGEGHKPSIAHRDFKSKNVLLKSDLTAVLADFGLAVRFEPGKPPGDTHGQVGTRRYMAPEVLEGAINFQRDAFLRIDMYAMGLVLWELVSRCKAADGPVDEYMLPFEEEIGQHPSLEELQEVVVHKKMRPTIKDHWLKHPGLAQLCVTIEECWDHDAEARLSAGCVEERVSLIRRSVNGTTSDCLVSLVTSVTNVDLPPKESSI
Ephrin type-A receptor 5, sequence (P54756 whole entry): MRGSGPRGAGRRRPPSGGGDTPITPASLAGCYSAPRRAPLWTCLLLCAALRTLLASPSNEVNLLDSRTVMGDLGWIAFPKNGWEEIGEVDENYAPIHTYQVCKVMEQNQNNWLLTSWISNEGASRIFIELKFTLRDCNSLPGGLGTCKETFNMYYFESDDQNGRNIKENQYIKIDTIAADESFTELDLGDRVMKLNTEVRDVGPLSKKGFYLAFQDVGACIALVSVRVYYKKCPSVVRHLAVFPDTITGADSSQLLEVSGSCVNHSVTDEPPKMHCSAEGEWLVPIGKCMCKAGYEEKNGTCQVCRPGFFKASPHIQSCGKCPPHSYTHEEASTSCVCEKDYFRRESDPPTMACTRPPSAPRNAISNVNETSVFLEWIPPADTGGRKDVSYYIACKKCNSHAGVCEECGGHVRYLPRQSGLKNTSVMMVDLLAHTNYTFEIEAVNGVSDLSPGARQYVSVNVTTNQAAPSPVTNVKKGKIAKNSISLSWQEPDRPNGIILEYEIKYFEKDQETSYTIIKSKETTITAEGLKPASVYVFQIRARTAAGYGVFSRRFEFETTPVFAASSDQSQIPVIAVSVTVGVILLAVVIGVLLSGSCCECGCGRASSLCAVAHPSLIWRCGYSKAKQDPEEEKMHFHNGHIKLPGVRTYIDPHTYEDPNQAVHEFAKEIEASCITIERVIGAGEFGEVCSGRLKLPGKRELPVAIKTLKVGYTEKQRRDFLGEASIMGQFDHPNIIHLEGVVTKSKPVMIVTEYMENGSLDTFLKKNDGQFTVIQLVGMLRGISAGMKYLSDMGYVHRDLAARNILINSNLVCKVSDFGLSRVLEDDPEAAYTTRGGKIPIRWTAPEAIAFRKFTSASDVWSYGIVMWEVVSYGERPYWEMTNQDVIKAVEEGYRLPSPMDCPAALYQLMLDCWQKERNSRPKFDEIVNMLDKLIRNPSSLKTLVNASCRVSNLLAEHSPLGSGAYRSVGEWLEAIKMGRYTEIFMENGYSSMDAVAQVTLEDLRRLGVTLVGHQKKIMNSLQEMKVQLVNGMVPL
cAMP-dependent protein kinase type II-alpha regulatory subunit, sequence (P13861 whole entry): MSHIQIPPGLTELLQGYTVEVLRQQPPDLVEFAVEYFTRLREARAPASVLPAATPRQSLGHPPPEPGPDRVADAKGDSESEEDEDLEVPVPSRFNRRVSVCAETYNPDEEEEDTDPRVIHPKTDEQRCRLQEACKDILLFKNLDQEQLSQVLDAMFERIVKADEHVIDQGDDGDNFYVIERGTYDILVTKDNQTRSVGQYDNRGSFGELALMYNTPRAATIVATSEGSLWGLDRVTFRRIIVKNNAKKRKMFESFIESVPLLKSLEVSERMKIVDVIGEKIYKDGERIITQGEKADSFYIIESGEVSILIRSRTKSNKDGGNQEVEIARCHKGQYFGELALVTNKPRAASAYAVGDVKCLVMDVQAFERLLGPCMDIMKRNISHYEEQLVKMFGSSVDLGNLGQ

CCc1cnn2c(NCc3ccc[n+]([O-])c3)cc(N3CCCC[C@H]3CCO)nc12 [DINACICLIB]
Kd (Activin receptor type-2B): > 30 µM (inactive) | Kd [1]: > 30 µM (inactive) | Kd [2]: > 30 µM (inactive) | Kd [3]: > 30 µM (inactive) | Kd [4]: > 30 µM (inactive) | Kd [5]: > 30 µM (inactive) | Kd [6]: > 30 µM (inactive) | Kd (Ephrin type-A receptor 5): > 30 µM (inactive) | Kd [7]: > 30 µM (inactive)

COc1cc2nccc(Oc3ccc(NC(=O)Nc4cc(C)on4)c(Cl)c3)c2cc1OC [TIVOZANIB]
Kd (Activin receptor type-2B): > 30 µM (inactive) | Kd [1]: > 30 µM (inactive) | Kd [2]: > 30 µM (inactive) | Kd [3]: > 30 µM (inactive) | Kd [4]: > 30 µM (inactive) | Kd [5]: > 30 µM (inactive) | Kd [8]: > 30 µM (inactive) | Kd [9]: > 30 µM (inactive) | Kd (Ephrin type-A receptor 5): 0.601 µM (active) | Kd [7]: > 30 µM (inactive)

CNC(=O)c1ccc(C)c(-n2c(C)cc(OCc3ccc(F)cc3F)c(Br)c2=O)c1 [PH-797804]
Kd (Activin receptor type-2B): > 30 µM (inactive) | Kd [1]: > 30 µM (inactive) | Kd [2]: > 30 µM (inactive) | Kd [3]: > 30 µM (inactive) | Kd [4]: > 30 µM (inactive) | Kd [5]: > 30 µM (inactive) | Kd [6]: > 30 µM (inactive) | Kd [9]: > 30 µM (inactive) | Kd (Ephrin type-A receptor 5): > 30 µM (inactive)

C[C@@H](c1ccc2nccn2c1)n1nnc2ncc(-c3cnn(C)c3)nc21 [SAVOLITINIB]
Kd (Activin receptor type-2B): > 30 µM (inactive) | Kd [1]: > 30 µM (inactive) | Kd [2]: > 30 µM (inactive) | Kd [4]: > 30 µM (inactive) | Kd [5]: > 30 µM (inactive) | Kd [6]: > 30 µM (inactive) | Kd [8]: > 30 µM (inactive) | Kd [9]: > 30 µM (inactive) | Kd (Ephrin type-A receptor 5): > 30 µM (inactive) | Kd [7]: > 30 µM (inactive)

CCn1c(=O)c(-c2cc[nH]n2)cc2c(C)nc(N)nc21 [VOXTALISIB]
Kd (Activin receptor type-2B): > 30 µM (inactive) | Kd [1]: > 30 µM (inactive) | Kd [2]: > 30 µM (inactive) | Kd [3]: > 30 µM (inactive) | Kd [4]: > 30 µM (inactive) | Kd [5]: > 30 µM (inactive) | Kd [6]: > 30 µM (inactive) | Kd [8]: > 30 µM (inactive) | Kd (Ephrin type-A receptor 5): > 30 µM (inactive) | Kd [7]: > 30 µM (inactive)

Cc1cn(-c2cc(NC(=O)c3ccc(C)c(Nc4nccc(-c5cccnc5)n4)c3)cc(C(F)(F)F)c2)cn1 [NILOTINIB]
Kd [1]: > 30 µM (inactive) | Kd [4]: > 30 µM (inactive) | Kd [7]: > 30 µM (inactive)

CNC(=O)c1cc(Oc2ccc(NC(=O)Nc3ccc(Cl)c(C(F)(F)F)c3)c(F)c2)ccn1 [REGORAFENIB]
Kd (Activin receptor type-2B): > 30 µM (inactive) | Kd [1]: > 30 µM (inactive) | Kd [2]: > 30 µM (inactive) | Kd [3]: > 30 µM (inactive) | Kd [4]: > 30 µM (inactive) | Kd [5]: > 30 µM (inactive) | Kd [8]: > 30 µM (inactive) | Kd [9]: > 30 µM (inactive) | Kd (Ephrin type-A receptor 5): 1.12 µM | Kd [7]: > 30 µM (inactive)

Cc1cc(Nc2cc(N3CCN(C)CC3)nc(/C=C/c3ccccc3)n2)n[nH]1 [ENMD-2076]
Kd (Activin receptor type-2B): > 30 µM (inactive) | Kd [1]: > 30 µM (inactive) | Kd [2]: > 30 µM (inactive) | Kd [4]: > 30 µM (inactive) | Kd (Ephrin type-A receptor 5): > 30 µM (inactive) | Kd [7]: > 30 µM (inactive)

OCCn1cc(-c2cnc3nnn(Cc4ccc5ncccc5c4)c3n2)cn1 [PF-04217903]
Kd (Activin receptor type-2B): > 30 µM (inactive) | Kd [1]: > 30 µM (inactive) | Kd [2]: > 30 µM (inactive) | Kd [3]: > 30 µM (inactive) | Kd [4]: > 30 µM (inactive) | Kd [5]: > 30 µM (inactive) | Kd (Ephrin type-A receptor 5): > 30 µM (inactive) | Kd [7]: > 30 µM (inactive)

O=C(Nc1cccc(Cl)c1)Nc1ncc(CCNc2ncnc3ccsc23)s1 [SNS-314]
Kd (Activin receptor type-2B): > 30 µM (inactive) | Kd [1]: > 30 µM (inactive) | Kd [2]: > 30 µM (inactive) | Kd [4]: > 30 µM (inactive) | Kd (Ephrin type-A receptor 5): > 30 µM (inactive) | Kd [7]: > 30 µM (inactive)

Cc1nc(N)sc1-c1ccnc(Nc2ccc(N3CCOCC3)cc2)n1 [CYC-116]
Kd (Activin receptor type-2B): > 30 µM (inactive) | Kd [1]: > 30 µM (inactive) | Kd [2]: 0.057 µM (active) | Kd [4]: > 30 µM (inactive)

COc1cc2nccc(Oc3ccc(NC(=O)NC4CC4)c(Cl)c3)c2cc1C(N)=O [LENVATINIB]
Kd (Activin receptor type-2B): > 30 µM (inactive) | Kd [1]: > 30 µM (inactive) | Kd [2]: > 30 µM (inactive) | Kd [4]: > 30 µM (inactive) | Kd [5]: > 30 µM (inactive) | Kd [6]: > 30 µM (inactive) | Kd [8]: > 30 µM (inactive) | Kd [9]: > 30 µM (inactive) | Kd (Ephrin type-A receptor 5): > 30 µM (inactive) | Kd [7]: > 30 µM (inactive)

CCn1c(-c2nonc2N)nc2c(C#CC(C)(C)O)ncc(OC[C@H]3CCCNC3)c21 [GSK-690693]
Kd [1]: > 30 µM (inactive) | Kd [4]: > 30 µM (inactive) | Kd [7]: 0.052 µM

C1=C/COCc2cc(ccc2OCCN2CCCC2)Nc2nccc(n2)-c2cccc(c2)COC/1 [PACRITINIB]
Kd (Activin receptor type-2B): > 30 µM (inactive) | Kd [1]: > 30 µM (inactive) | Kd [2]: 0.035 µM (active) | Kd [3]: > 30 µM (inactive) | Kd [4]: > 30 µM (inactive) | Kd [5]: > 30 µM (inactive) | Kd [8]: > 30 µM (inactive) | Kd [9]: 2.19 µM (active) | Kd (Ephrin type-A receptor 5): > 30 µM (inactive) | Kd [7]: > 30 µM (inactive)

CN1CCN(c2ccc3nc(-c4c(N)c5c(F)cccc5[nH]c4=O)[nH]c3c2)CC1 [DOVITINIB]
Kd [1]: > 30 µM (inactive) | Kd [4]: > 30 µM (inactive) | Kd [7]: > 30 µM (inactive)

Nc1nc(N)c2nc(-c3cccc(O)c3)c(-c3cccc(O)c3)nc2n1 [TG100-115]
Kd [1]: > 30 µM (inactive) | Kd [4]: > 30 µM (inactive) | Kd [7]: > 30 µM (inactive)

O=C(c1ccc(F)c(F)c1Nc1ccc(I)cc1F)N1CC(O)([C@@H]2CCCCN2)C1 [COBIMETINIB]
Kd (Activin receptor type-2B): > 30 µM (inactive) | Kd [1]: > 30 µM (inactive) | Kd [2]: > 30 µM (inactive) | Kd [4]: > 30 µM (inactive) | Kd [5]: > 30 µM (inactive) | Kd [6]: > 30 µM (inactive) | Kd [8]: > 30 µM (inactive) | Kd [9]: > 30 µM (inactive) | Kd (Ephrin type-A receptor 5): > 30 µM (inactive) | Kd [7]: > 30 µM (inactive)
